Results: patent US7973164B2, “Quinoline derivatives” (AstraZeneca AB, priority 2006, dated 2011)

How the values were obtained:
PDGFRβ = target: T1, PDGFRβ (Homo sapiens, UniProt P09619); test: Test (b) in vitro phospho-Tyr751 PDGFRβ ELISA assay in MG63 osteosarcoma cells; assay type: cell-based; conditions: MG63 osteosarcoma cells stimulated with PDGFBB, read-out: IC50 versus phospho-Tyr751 formation in PDGFRβ
T1 construct: endogenous in cells; host or cells: MG63 osteosarcoma cells (ATCC)
Experimental: (b) In Vitro Phospho-Tyr751 PDGFRβ ELISA Assay
This assay uses a conventional ELISA method to determine the ability of test compounds to inhibit phosphorylation of tyrosine in PDGFRβ.
Aliquots (100 μl) of culture media were placed in the outer wells to minimise edge effects. The cells were incubated overnight at 37° C. with 7.5% CO2 to allow the cells to adhere to the wells.
Aliquots (3 μl) of each compound concentration were added to test medium (300 μl) to create a second dilution range. Aliquots (16 μl) of each resultant compound concentration were added to the cells in each well. “Maximum” control cells received a dilution of DMSO plus test medium only. “Minimum” control cells received a reference PDGFR inhibitor (16 μl). The cells were incubated for 90 minutes at 37° C. with 7.5% CO2.
The resultant cells were stimulated with PDGFBB using the following procedure. A lyophilised powder of PDGFBB, (Sigma-Aldrich; Catalogue No. P4306) was mixed with sterile water to provide a stock solution of 10 μg/ml of PDGFBB. […] Aliquots thereof (44 μl) were added to compound treated cells and to the “Maximum” control cells. The “Minimum” control cells received medium only. The cells were incubated at 37° C. with 7.5% CO2 for 5 minutes. […] The resultant tissue culture plates were shaken for 5 minutes at ambient temperature to ensure full lysis and then frozen at −20° C. until required.
Aliquots (50 μl) were added to each well and the plates were placed at 4° C. for 16 hours. The wells were washed 5 times (1 minute soak each time) with 300 μl per well of PBST. The wells were treated with 50 μl of 3% BSA in PBST at ambient temperature for 1 hour and subsequently washed twice with 300 μl per well of PBST.
The tissue culture plates with frozen cell lysate were allowed to warm to 0° C. Aliquots (50 μl) of the MG63 cell lysate were added to the ELISA plates. Each sample was duplicated on separate plates. The ELISA plates were agitated at ambient temperature for 2 hours. The wells were washed twice with 300 μl per well of PBST. […] Aliquots (50 μl) of the antibody solutions were added to each of the wells. The plates were agitated at ambient temperature for 1 hour. The plates were washed twice with 300 μl per well of PBST. […] Aliquots (50 μl) of the resultant dilution were added to each well and the plates were agitated at ambient temperature for 1 hour. The plates were washed 5 times with 300 μl per well of PBST. […] Aliquots (50 μl) of chemiluminescent substrate solution were added to each of the wells, the plates were agitated for 2 minutes and luminescence was read on a SpectraFluor Plus plate reader (Tecan UK Ltd., Reading, Berkshire, UK). Analysis for each of the compounds was completed by determining a ratio of the ‘phospho antibody’ plate reading to the ‘total antibody’ plate reading for each test sample and these ratios were plotted to determine the IC50 value of each test compound.

KDR (VEGFR2) = target: T2, KDR (VEGFR2) (Homo sapiens, UniProt P35968); test: Test (c) in vitro phospho-KDR ELISA assay in HUVECs; assay type: cell-based; conditions: HUVECs stimulated with VEGF, read-out: IC50 versus phospho-tyrosine formation in KDR
T2 construct: phosphorylation of KDR expressed in human umbilical vein endothelial cells (HUVECs); host or cells: HUVECs
T2 sequence (P35968 20-1356): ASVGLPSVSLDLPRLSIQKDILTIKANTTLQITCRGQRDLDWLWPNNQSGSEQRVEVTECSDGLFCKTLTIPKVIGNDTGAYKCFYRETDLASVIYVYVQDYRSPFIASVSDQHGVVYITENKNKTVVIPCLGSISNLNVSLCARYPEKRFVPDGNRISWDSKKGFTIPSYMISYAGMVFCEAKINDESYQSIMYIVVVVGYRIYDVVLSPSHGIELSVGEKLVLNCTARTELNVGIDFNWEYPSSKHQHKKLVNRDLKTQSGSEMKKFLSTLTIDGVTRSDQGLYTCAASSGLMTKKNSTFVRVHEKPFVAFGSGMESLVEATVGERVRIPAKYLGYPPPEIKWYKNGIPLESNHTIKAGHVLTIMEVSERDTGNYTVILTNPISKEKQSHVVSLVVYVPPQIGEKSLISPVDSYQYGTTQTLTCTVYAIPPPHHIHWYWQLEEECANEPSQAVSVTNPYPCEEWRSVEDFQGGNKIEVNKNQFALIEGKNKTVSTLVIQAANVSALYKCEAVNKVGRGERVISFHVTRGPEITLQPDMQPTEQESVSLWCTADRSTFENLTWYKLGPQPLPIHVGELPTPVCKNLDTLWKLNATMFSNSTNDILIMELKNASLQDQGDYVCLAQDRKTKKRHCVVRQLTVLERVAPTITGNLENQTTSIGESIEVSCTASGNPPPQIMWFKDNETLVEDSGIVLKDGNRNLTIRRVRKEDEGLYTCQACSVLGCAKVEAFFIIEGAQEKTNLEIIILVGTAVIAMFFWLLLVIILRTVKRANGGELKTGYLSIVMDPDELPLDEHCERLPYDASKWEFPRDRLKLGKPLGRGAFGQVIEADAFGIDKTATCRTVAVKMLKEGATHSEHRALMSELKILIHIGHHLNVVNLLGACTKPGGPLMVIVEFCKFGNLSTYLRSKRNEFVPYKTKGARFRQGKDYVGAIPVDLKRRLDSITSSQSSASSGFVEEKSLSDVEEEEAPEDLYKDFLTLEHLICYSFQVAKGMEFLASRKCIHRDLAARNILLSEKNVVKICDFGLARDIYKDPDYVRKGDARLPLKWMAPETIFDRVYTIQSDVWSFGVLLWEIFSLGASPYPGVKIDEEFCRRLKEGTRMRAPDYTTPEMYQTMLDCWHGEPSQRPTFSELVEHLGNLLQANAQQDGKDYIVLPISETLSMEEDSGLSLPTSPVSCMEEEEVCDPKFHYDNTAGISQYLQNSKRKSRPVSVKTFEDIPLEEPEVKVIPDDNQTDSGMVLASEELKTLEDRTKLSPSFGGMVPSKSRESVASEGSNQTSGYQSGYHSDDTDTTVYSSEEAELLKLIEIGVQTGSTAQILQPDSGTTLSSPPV
Experimental: (c) In Vitro Phospho-KDR ELISA Assay
This assay uses a conventional ELISA method to determine the ability of test compounds to inhibit phosphorylation of tyrosine in KDR (VEGFR2).
The cells were incubated overnight at 37° C. with 7.5% CO2 to allow adherence to the well surface. […] The plates were incubated at 37° C. for 2.5 hours.
Test compounds were prepared as 10 mM stock solutions in DMSO and serially diluted with DMSO as required. Aliquots (3 μl) of each concentration of test compound were diluted with ‘serum fiee medium’ (300 μl). Aliquots (50 μl) of each resultant compound concentration were added to the cells in each well. […] The cells were incubated for 90 minutes at 37° C. with 7.5% CO2.
The resultant cells were stimulated with VEGF using the following procedure. A lyopliilised powder of VEGF (Sigma-Aldrich; Catalogue No. V7259) was mixed with PBS containing 0.1% filter-sterilised BSA (0.1% BSA/PBS) to provide a stock solution of 10 μg/ml of VEGF. A dilution of this stock solution into ‘serum free medium’ provided a 1000 ng/ml VEGF solution. Aliquots thereof (50 μl) were added to all wells. The cells were incubated at 37° C. with 7.5% CO2 for 5 minutes. […] The resultant tissue culture plates were shaken for 5 minutes at ambient temperature to ensure full lysis before being frozen on dry-ice and stored at −20° C. until required.
The antibody was diluted in PBS to a concentration of 8 μg/ml, aliquots (100 μl) were added to each well and the plates were stored at ambient temperature for 16 hours. The wells were washed 3 times (1 minute soak each time) with 300 μl per well of PBST. The wells were treated with PBS containing 1% filter-sterilised BSA (1% BSA/PBS; 200 μl) at ambient temperature for 1 hour and subsequently washed 3 times with 300 μl per well of PBST.
The tissue culture plates with frozen cell lysate were allowed to warm to 0° C. Aliquots (100 μl) of the HUVEC cell lysate were added and the ELISA plates were agitated at ambient temperature for 3 hours. The wells were washed 3 times with 300 μl per well of PBST. […] Aliquots (100 μl) of the resultant dilution were added to each well and the plates were agitated at ambient temperature for 2 hours. The plates were washed 4 times with 300 μl per well of PBST. […] Aliquots (50 μl) of chemiluminescent substrate solution were added to each of the wells, the plates were agitated for 2 minutes and luminescence was read on a SpectraFluor is Plus plate reader (Tecan UK Ltd.). The resultant data were analysed to determine the IC50 value of each test compound.

PDGF receptor kinase = conditions: literature (Nature Reviews 2002; Cancer Research 1996); cited from earlier work
[1] = system: human glioblastoma lines U343 and U87; conditions: U343 and U87 injected into the brains of nude mice; Cancer Research 2000; cited from earlier work
[2] = system: dermatofibrosarcoma protruberans cell cultures; conditions: Cancer Research 2001; cited from earlier work

T1 sequence (P09619 33-1106): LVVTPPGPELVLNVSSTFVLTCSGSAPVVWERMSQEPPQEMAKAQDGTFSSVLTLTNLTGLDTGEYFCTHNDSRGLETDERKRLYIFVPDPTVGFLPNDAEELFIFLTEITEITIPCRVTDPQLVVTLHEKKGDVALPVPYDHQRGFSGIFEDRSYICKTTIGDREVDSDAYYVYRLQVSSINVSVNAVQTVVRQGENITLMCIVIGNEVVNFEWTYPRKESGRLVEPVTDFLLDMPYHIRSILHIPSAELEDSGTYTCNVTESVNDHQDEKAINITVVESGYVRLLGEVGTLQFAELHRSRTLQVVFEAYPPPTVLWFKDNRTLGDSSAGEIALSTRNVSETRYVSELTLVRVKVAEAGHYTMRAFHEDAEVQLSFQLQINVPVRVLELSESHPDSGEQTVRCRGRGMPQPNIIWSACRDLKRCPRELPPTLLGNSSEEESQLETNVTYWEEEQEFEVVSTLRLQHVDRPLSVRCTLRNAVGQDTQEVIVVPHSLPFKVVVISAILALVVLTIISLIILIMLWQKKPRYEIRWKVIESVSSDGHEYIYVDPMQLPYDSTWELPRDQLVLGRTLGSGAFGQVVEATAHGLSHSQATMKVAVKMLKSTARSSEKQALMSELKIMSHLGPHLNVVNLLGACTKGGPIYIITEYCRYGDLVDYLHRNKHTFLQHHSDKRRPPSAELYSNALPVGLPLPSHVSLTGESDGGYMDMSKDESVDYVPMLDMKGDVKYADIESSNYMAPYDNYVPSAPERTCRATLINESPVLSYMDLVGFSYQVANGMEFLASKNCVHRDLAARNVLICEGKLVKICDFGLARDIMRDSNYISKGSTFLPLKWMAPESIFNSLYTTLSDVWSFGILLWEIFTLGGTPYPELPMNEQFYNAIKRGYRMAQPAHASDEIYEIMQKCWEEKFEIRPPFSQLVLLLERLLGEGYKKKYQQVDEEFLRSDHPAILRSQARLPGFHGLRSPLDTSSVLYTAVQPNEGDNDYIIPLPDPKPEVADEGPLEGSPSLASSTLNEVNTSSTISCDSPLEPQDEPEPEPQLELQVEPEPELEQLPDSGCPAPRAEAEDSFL

Structure (SMILES) | IC50 (PDGFRβ) [µM] | IC50 (KDR (VEGFR2)) [µM] | inhibition of PDGF receptor kinase activity (PDGF receptor kinase) | inhibition of growth of glioblastoma tumours [1] | inhibition of in vivo growth of dermatofibrosarcoma protruberans cell cultures [2]
CCc1c[nH]nc1NC(=O)Cc1ccc(Oc2ccnc3cc(OC)c(OC)cc23)cc1OC [N-(4-ethyl-1H-pyrazol-3-yl)-2-[4-(6,7-dimethoxyquinolin-4-yloxy)-2-methoxyphenyl]acetamide] | ~0.005 | > 2 | – | – | –
COc1cc(Oc2ccnc3ccc(F)cc23)ccc1CC(=O)Nc1n[nH]c(C)c1C [N-(4,5-dimethyl-1H-pyrazol-3-yl)-2-[4-(6-fluoroquinolin-4-yloxy)-2-methoxyphenyl]acetamide] | ~0.01 | > 2 | – | – | –
COc1cc(Oc2ccnc3ccc(F)cc23)ccc1CC(=O)Nc1cc(C)[nH]n1 [N-(5-methyl-1H-pyrazol-3-yl)-2-[4-(6-fluoroquinolin-4-yloxy)-2-methoxyphenyl]acetamide] | ~0.01 | > 2 | – | – | –
CCn1cc(NC(=O)Cc2ccc(Oc3ccnc4cc(OC)c(C(=O)N(C)C)cc34)cc2)cn1 [N-(1-ethyl-1H-pyrazol-4-yl)-2-{4-[6-(N,N-dimethylcarbamoyl)-7-methoxyquinolin-4-yloxy]phenyl}acetamide] | ~0.003 | ~0.7 | – | – | –
CNC(=O)c1cc2c(Oc3ccc(CC(=O)Nc4noc(C)c4C)c(OC)c3)ccnc2cc1OC [N-(4,5-dimethylisoxazol-3-yl)-2-{2-methoxy-4-[7-methoxy-6-(N-methylcarbamoyl)quinolin-4-yloxy]phenyl}acetamide] | ~0.005 | ~1 | – | – | –
CCn1cc(NC(=O)Cc2ccc(Oc3ccnc4cc(OC)c(C#N)cc34)cc2OC)cn1 [N-(1-ethyl-1H-pyrazol-4-yl)-2-[4-(6-cyano-7-methoxyquinolin-4-yloxy)-2-methoxyphenyl]acetamide] | ~0.002 | ~0.75 | – | – | –
CCn1cc(NC(=O)Cc2ccc(Oc3ccnc4cc(OC)c(C#N)cc34)cc2)cn1 [N-(1-ethyl-1H-pyrazol-4-yl)-2-[4-(6-cyano-7-methoxyquinolin-4-yloxy)phenyl]acetamide] | ~0.002 | ~0.2 | – | – | –
CCn1cc(NC(=O)Cc2ccc(Oc3ccnc4ccccc34)cc2OC)cn1 [N-(1-ethyl-1H-pyrazol-4-yl)-2-(2-methoxy-4-quinolin-4-yloxyphenyl)acetamide] | ~0.02 | > 1 | – | – | –
Cc1ccc(NC(=O)c2ccc(CN3CCN(C)CC3)cc2)cc1Nc1nccc(-c2cccnc2)n1 [imatinib] | – | – | shown to inhibit PDGF receptor kinase activity | inhibits the growth of glioblastoma tumours | inhibits the in vivo growth of dermatofibrosarcoma protruberans cell cultures
